According to patent US11472766B2, “Lipid nanoparticle composition” (Suzhou Abogen Biosciences Co., Ltd., priority 2020, dated 2022):

What was measured:
[1] = Encapsulation efficiency of lipid nanoparticles (Quant-it Ribogreen RNA quantification assay); assay type: physicochemical; conditions: LNP encapsulating hEPO mRNA
Protocol: (§1) Briefly, a cationic lipid provided herein, DSPC, cholesterol, and PEG-lipid were solubilized in ethanol at a molar ratio of 50:10:38.5:1.5, and mRNA were diluted in 10 to 50 mM citrate buffer, pH=4. The LNPs were prepared at a total lipid to mRNA weight ratio of approximately 10:1 to 30:1 by mixing the ethanolic lipid solution with the aqueous mRNA solution at a volume ratio of 1:3 using a microfluidic apparatus, total flow rate ranging from 9-30 mL/min. Ethanol were thereby removed and replaced by DPBS using dialysis. Finally, the lipid nanoparticles were filtered through a 0.2 μm sterile filter.
(§2) Lipid nanoparticle size were determined by dynamic light scattering using a Malvern Zetasizer Nano ZS (Malvern UK) using a 173° backscatter detection mode. The encapsulation efficiency of lipid nanoparticles were determined using a Quant-it Ribogreen RNA quantification assay kit (Thermo Fisher Scientific, UK) according to the manufacturer's instructions.

[2] = tested on: human erythropoietin (hEPO) mRNA; assay: Animal study: hEPO expression after tail vein injection of LNPs encapsulating hEPO mRNA (serum ELISA); assay type: in vivo; conditions: hEPO level, female ICR mice, 0.5 mg/kg, 6 hours post administration; for Expression at 6 h (μg/ml): class symbols, Table 3
Protocol: Lipid nanoparticles comprising compounds 1-10 encapsulating human erythropoietin (hEPO) mRNA were systemically administered to 6-8 week old female ICR mice (Xipuer-Bikai, Shanghai) at 0.5 mg/kg dose by tail vein injection and mice blood were sampled at specific time points (e.g., 6 hours) post administration. In addition to the aforementioned tested groups, lipid nanoparticles comprising dilinoleylmethyl-4-dimethylaminobutyrate (DLin-MC3-DMA, usually abbreviated to MC3) encapsulating hEPO mRNA were similarly administered at the same dose to age and gender comparative groups of mice as a positive control.
Mice were euthanized by CO2 overdoses after the last sampling time point. Serum were separated from total blood by centrifugation at 5000 g for 10 minutes at 4° C., snap-frozen and stored at −80° C. for analysis. ELSA assay were carried out using a commercial kit (DEP00, R&D systems) according to manufacturer's instructions.
Characteristics of tested lipid nanoparticles, including hEPO expression levels (μg/ml) measured from the tested group are listed the tables below and plotted in FIG. 2.

[3] = Lipid nanoparticle size by dynamic light scattering (Malvern Zetasizer Nano ZS); assay type: physicochemical; conditions: LNP: cationic lipid/DSPC/cholesterol/PEG-lipid 50:10:38.5:1.5, hEPO mRNA
Protocol: as §1, §2

[4] = Apparent pKa of LNP formulations (TNS fluorescence assay); conditions: LNP cationic lipid/DSPC/cholesterol/DMG-PEG 50/10/38.5/1.5 mol %
Protocol: The apparent pKa of each formulation was determined using an assay based on fluorescence of 2-(p-toluidino)-6-napthalene sulfonic acid (TNS). LNP formulations comprising of cationic lipid/DSPC/cholesterol/DMG-PEG (50/10/38.5/1.5 mol %) in PBS were prepared as described above. TNS was prepared as a 300 uM stock solution in distilled water. LNP formulations were diluted to 0.1 mg/ml total lipid in 3 mL of buffered solutions containing 50 mM sodium citrate, 50 mM sodium phosphate, 50 mM sodium borate, and 30 mM sodium chloride where the pH ranged from 3 to 9. An aliquot of the TNS solution was added to give a final concentration of 0.1 mg/ml and following vortex mixing fluorescence intensity was measured at room temperature in a Molecular Devices Spectramax iD3 spectrometer using excitation and mission wavelengths of 325 nm and 435 nm. A sigmoidal best fit analysis was applied to the fluorescence data and the pKa value was measured as the pH giving rise to half-maximal fluorescent intensity.

| Encapsulation Efficiency ([1]; Table 3) [%] | polydispersity ([3]; Table 3) | size nm ([3]; Table 3) [nm] | Apparant Pka ([4]; Table 3) | Encapsulation Efficiency ([1]; Table 2) [%] | polydispersity ([3]; Table 2) | size nm ([3]; Table 2) [nm] | Apparant Pka ([4]; Table 2) | Compound | Expression at 6 h (μg/ml) [2] | Expression at 6 h ([2]; Table 2) [µg/mL] |
| --- | --- | --- | --- | --- | --- | --- | --- | --- | --- | --- |
| 98.4 | 0.035 | 64.39 | 6.797 | – | – | – | – | CCCCCCCCC(CCCCCC)COC(=O)NCCCCN(CCCCNC(=O)OCC(CCCCCC)CCCCCCCC)CCN(CCO)C1CCC1 (centres unmarked) [Compound 155] | B (≥1 and <2) | – |
| 97.1 | 0.1 | 59.78 | 6.264 | – | – | – | – | CCCCCCCCC(CCCCCC)CNC(=O)CCCCCN(CCCCCC(=O)NCC(CCCCCC)CCCCCCCC)CCN(CCO)C1CCCCC1 (centres unmarked) [Compound 120] | B (≥1 and <2) | – |
| 88.4 | 0.068 | 104.8 | 6.836 | – | – | – | – | CCCCCCC(CCCCCC)CC(=O)NCCCCCN(CCCCCOC(=O)CC(CCCCCC)CCCCCC)CCN(CCO)C1CCCC1 [Compound 154] | A (≥2) | – |
| 97.2 | 0.21 | 66.89 | 7.41 | – | – | – | – | CCCCCCCCC(CCCCCC)COC(=O)CCCCCN(CCCCCC(=O)OCC(CCCCCC)CCCCCCCC)CCN(CCO)C1COC1 (centres unmarked) [Compound 88] | D (<0.1) | – |
| 91.4 | 0.082 | 69.58 | 7.304 | – | – | – | – | CCCCCCCCCCCOC(=O)CCCCCN(CCCCCC(=O)NCC(CCCCCCCC)CCCCCCCC)CCN(CCO)C1CCCC1 [Compound 147] | A (≥2) | – |
| 93.2 | 0.083 | 65.55 | 6.064 | – | – | – | – | CCCCCCCCCCCOC(=O)CCCCCN(CCCCCC(=O)OCC(CCCCCCCC)CCCCCCCC)CCN(CCO)C1CCCCCC1 [Compound 84] | B (≥1 and <2) | – |
| 97.3 | 0.067 | 72 | 6.6 | – | – | – | – | CCCCCCCCC(CCCCCC)COC(=O)CCCCCN(CCCCCC(=O)OCC(CCCCCC)CCCCCCCC)CCN(CCO)C1CCOC1 (centres unmarked) [Compound 90] | B (≥1 and <2) | – |
| 91.2 | 0.037 | 65.71 | 6.515 | – | – | – | – | CCCCCCCCC(CCCCCCCC)COC(=O)CCCCCN(CCCCCC(=O)OCC(CCCCCCCC)CCCCCCCC)CCN(CCO)C1CCOC1 (centres unmarked) [Compound 87] | A (≥2) | – |
| 95.0 | 0.035 | 64.08 | 6.794 | – | – | – | – | CCCCCCCCC(CCCCCCCC)CC(=O)NCCCCCN(CCCCCNC(=O)CC(CCCCCCCC)CCCCCCCC)CCN(CCO)C1CCCCCC1 [Compound 144] | A (≥2) | – |

More lines, now with the values behind:

| Compound | Encapsulation Efficiency ([1]; Table 3) [%] | polydispersity ([3]; Table 3) | size nm ([3]; Table 3) [nm] | Apparant Pka ([4]; Table 3) | Encapsulation Efficiency ([1]; Table 2) [%] | polydispersity ([3]; Table 2) | size nm ([3]; Table 2) [nm] | Apparant Pka ([4]; Table 2) | Expression at 6 h (μg/ml) [2] | Expression at 6 h ([2]; Table 2) [µg/mL] |
| --- | --- | --- | --- | --- | --- | --- | --- | --- | --- | --- |
| CCCCCCC(CCCCCC)COC(=O)CCCCCN(CCCCCC(=O)OCC(CCCCCC)CCCCCC)CCN(CCO)C1CCC1 [Compound 48] | 91.80 | 0.065 | 72.52 | 6.347 | – | – | – | – | A (≥2) | – |
| CCCCCCCCC(CCCCCC)COC(=O)CCCCCN(CCCCCC(=O)OCC(CCCCCC)CCCCCCCC)CCN(CCO)C1CC(O)C1 (centres unmarked) [Compound 22] | 98.3 | 0.081 | 71.2 | 6.884 | – | – | – | – | D (<0.1) | – |
| CCCCCCCCC(CCCCCC)COC(=O)CCCCCN(CCCCCC(=O)OCC(CCCCCC)CCCCCCCC)CCN(CCO)C1CCC1 (centres unmarked) [Compound 35] | 94.8 | 0.086 | 60.58 | 5.945 | – | – | – | – | C (≥0.1 and <1) | – |
| CCCCCCCCC(CCCCCC)COC(=O)CCCCCN(CCCCCC(=O)OCC(CCCCCC)CCCCCCCC)CCN(CCO)C1CC1 (centres unmarked) [Compound 4] | – | – | – | – | 98.1 | 0.068 | 57.5 | 5.87 | – | 0.48 |
| CCCCCCCCC(CCCCCCCC)COC(=O)CCCCCN(CCCCCC(=O)OCC(CCCCCCCC)CCCCCCCC)CCN(CCCC)C1CCC(O)CC1 (centres unmarked) [Compound 67] | 79.3 | 0.05 | 64.75 | 6.341 | – | – | – | – | B (≥1 and <2) | – |
| CCCCCCCCC(CCCCCC)COC(=O)CCCCCN(CCCCCC(=O)OCC(CCCCCC)CCCCCCCC)CCN(CCO)C1CCC(O)CC1 (centres unmarked) [Compound 21] | 100.6 | 0.077 | 75.26 | 7.652 | – | – | – | – | D (<0.1) | – |
| CCCCCCCCCCCOC(=O)CCCCCN(CCCCCC(=O)OCC(CCCCCCCC)CCCCCCCC)CCN(CCO)C1CCCCC1 [Compound 83] | 93.5 | 0.087 | 67.62 | 6.328 | – | – | – | – | B (≥1 and <2) | – |
| CCCCCCCCC(CCCCCC)COC(=O)CCCCN(CCCCC(=O)OCC(CCCCCC)CCCCCCCC)CCN(CCO)C1CCC1 (centres unmarked) [Compound 36] | 98.3 | 0.065 | 70.36 | 5.907 | – | – | – | – | A (≥2) | – |
| CCCCCCCCC(CCCCCC)COC(=O)CCCCCC(CCCCCC(=O)OCC(CCCCCC)CCCCCCCC)CN(C)CCO (centres unmarked) [Compound 14] | 94.9 | 0.172 | 60.13 | 9.356 | – | – | – | – | C (≥0.1 and <1) | – |
| CCCCCCCCC(CCCCCC)COC(=O)CCCCCN(CCCCCC(=O)OCC(CCCCCC)CCCCCCCC)CCN(C(C)C)C1CCC(O)CC1 (centres unmarked) [Compound 57] | 96.1 | 0.063 | 93.52 | 6.645 | – | – | – | – | A (≥2) | – |
